Experimental data from the CheMixHub viscosity set.
± gives the uncertainty stated by the source.

Test: xn = mol fraction of the nth substance listed

[Br-].[Na+] + O
viscosity [mPa·s]
Conditions	100 kPa	101.3 kPa
293.15 K, x1 = 0.0009	–	1.005 ± 0.022
293.15 K, x1 = 0.0018	–	1.007 ± 0.022
293.15 K, x1 = 0.00893	–	1.027 ± 0.022
293.15 K, x1 = 0.0177	–	1.055 ± 0.023
293.15 K, x1 = 0.03478	–	1.131 ± 0.024
293.15 K, x1 = 0.05127	–	1.235 ± 0.026
293.15 K, x1 = 0.06722	–	1.368 ± 0.029
293.15 K, x1 = 0.09755	–	1.746 ± 0.037
293.15 K, x1 = 0.126	–	2.317 ± 0.05
298.15 K, x1 = 0.00088	0.8936 ± 0.015	–
298.15 K, x1 = 0.0009	–	0.8935 ± 0.019
298.15 K, x1 = 0.0018	–	0.8956 ± 0.019
298.15 K, x1 = 0.00351	0.895 ± 0.038	–
298.15 K, x1 = 0.00368	0.9007 ± 0.015	–
298.15 K, x1 = 0.00829	0.9176 ± 0.016	–
298.15 K, x1 = 0.00879	0.9099 ± 0.039	–
298.15 K, x1 = 0.00893	–	0.9162 ± 0.019
298.15 K, x1 = 0.0101	0.9211 ± 0.016	–
298.15 K, x1 = 0.0146	0.9363 ± 0.016	–
298.15 K, x1 = 0.0177	0.9479 ± 0.04	0.9443 ± 0.02
298.15 K, x1 = 0.01952	0.9523 ± 0.016	–
298.15 K, x1 = 0.02624	0.9808 ± 0.017	–
298.15 K, x1 = 0.03478	–	1.016 ± 0.022
298.15 K, x1 = 0.03489	1.022 ± 0.017	–
298.15 K, x1 = 0.04115	1.054 ± 0.018	–
298.15 K, x1 = 0.05064	1.112 ± 0.019	–
298.15 K, x1 = 0.05127	–	1.111 ± 0.024
298.15 K, x1 = 0.05382	1.186 ± 0.051	–
298.15 K, x1 = 0.06722	–	1.231 ± 0.026
298.15 K, x1 = 0.08817	1.474 ± 0.063	–
298.15 K, x1 = 0.09755	–	1.563 ± 0.033
298.15 K, x1 = 0.126	–	2.052 ± 0.044
303.15 K, x1 = 0.0009	–	0.8006 ± 0.017
303.15 K, x1 = 0.0018	–	0.803 ± 0.017
303.15 K, x1 = 0.00893	–	0.824 ± 0.017
303.15 K, x1 = 0.0177	–	0.8517 ± 0.018
303.15 K, x1 = 0.03478	–	0.9187 ± 0.019
303.15 K, x1 = 0.05127	–	1.006 ± 0.021
303.15 K, x1 = 0.06722	–	1.114 ± 0.024
303.15 K, x1 = 0.09755	–	1.407 ± 0.03
303.15 K, x1 = 0.126	–	1.833 ± 0.039
303.74 K, x1 = 0.03489	0.9102 ± 0.015	–
303.75 K, x1 = 0.05064	0.9936 ± 0.017	–
303.86 K, x1 = 0.04115	0.9393 ± 0.016	–
306.42 K, x1 = 0.00829	0.7716 ± 0.013	–
308.15 K, x1 = 0.0009	–	0.7225 ± 0.015
308.15 K, x1 = 0.0018	–	0.7249 ± 0.015
308.15 K, x1 = 0.00893	–	0.7458 ± 0.016
308.15 K, x1 = 0.0177	–	0.7722 ± 0.016
308.15 K, x1 = 0.03478	–	0.8359 ± 0.018
308.15 K, x1 = 0.05127	–	0.9163 ± 0.019
308.15 K, x1 = 0.06722	–	1.014 ± 0.022
308.15 K, x1 = 0.09755	–	1.277 ± 0.027
308.15 K, x1 = 0.126	–	1.649 ± 0.035
308.44 K, x1 = 0.01952	0.7804 ± 0.013	–
308.74 K, x1 = 0.00088	0.7144 ± 0.012	–
308.75 K, x1 = 0.02624	0.7947 ± 0.014	–
308.94 K, x1 = 0.0146	0.7534 ± 0.013	–
309.24 K, x1 = 0.0101	0.7342 ± 0.013	–
310.75 K, x1 = 0.05064	0.8742 ± 0.015	–
311.42 K, x1 = 0.04115	0.8205 ± 0.014	–
311.74 K, x1 = 0.00368	0.6805 ± 0.012	–
313.15 K, x1 = 0.0009	–	0.6562 ± 0.014
313.15 K, x1 = 0.0018	–	0.6587 ± 0.014
313.15 K, x1 = 0.00893	–	0.679 ± 0.014
313.15 K, x1 = 0.0177	–	0.7046 ± 0.015
313.15 K, x1 = 0.03478	–	0.7648 ± 0.016
313.15 K, x1 = 0.05127	–	0.8392 ± 0.018
313.15 K, x1 = 0.06722	–	0.929 ± 0.02
313.15 K, x1 = 0.09755	–	1.165 ± 0.025
313.15 K, x1 = 0.126	–	1.494 ± 0.032
318.15 K, x1 = 0.0009	–	0.5992 ± 0.013
318.15 K, x1 = 0.0018	–	0.6017 ± 0.013
318.15 K, x1 = 0.00893	–	0.6213 ± 0.013
318.15 K, x1 = 0.0177	–	0.646 ± 0.014
318.15 K, x1 = 0.03478	–	0.7032 ± 0.015
318.15 K, x1 = 0.05127	–	0.7724 ± 0.016
318.15 K, x1 = 0.06722	–	0.855 ± 0.018
318.15 K, x1 = 0.09755	–	1.069 ± 0.023
318.15 K, x1 = 0.126	–	1.363 ± 0.029
323.02 K, x1 = 0.00088	0.5507 ± 0.0095	–
323.15 K, x1 = 0.0009	–	0.5496 ± 0.012
323.15 K, x1 = 0.0018	–	0.5519 ± 0.012
323.15 K, x1 = 0.00351	0.5505 ± 0.024	–
323.15 K, x1 = 0.00879	0.5603 ± 0.024	–
323.15 K, x1 = 0.00893	–	0.5708 ± 0.012
323.15 K, x1 = 0.0177	0.5834 ± 0.025	0.5948 ± 0.013
323.15 K, x1 = 0.03478	–	0.6489 ± 0.014
323.15 K, x1 = 0.05127	–	0.7136 ± 0.015
323.15 K, x1 = 0.05382	0.7427 ± 0.032	–
323.15 K, x1 = 0.06722	–	0.7896 ± 0.017
323.15 K, x1 = 0.08817	0.9292 ± 0.04	–
323.15 K, x1 = 0.09755	–	0.9845 ± 0.021
323.15 K, x1 = 0.126	–	1.248 ± 0.026
